# Literature values, collected in patent US20260048172A1, “WOUND DRESSINGS” (ConvaTec Limited, priority 2023, published 2026).
substance,measurement,setting,value
citric acid [citric/citrate],pka (third),Ka = 0.0000004,pka = 6.4
same,pka (second),Ka = 0.0000200,pka = 4.7
same,pka (first),Ka = 0.0007943,pka = 3.1
